Experiments:
[1] = test system: Human Panc-1 pancreatic tumor xenograft; assay: Median survival, human Panc-1 pancreatic tumor xenograft in nude mouse; type: in vivo
Protocol: In the ITPP treatment group, mice with tumor xenograft were treated with ITPP (2 mg/Kg) weekly during the period of day 14 to day 49. In the gemcitabine treatment group, mice with tumor xenograft were treated with gemcitabine (100 mg/Kg) on days 16, 18 and 20. Animals in the control group were not treated.
In the combination treatment group, mice with tumor xenograft were treated with ITPP (2 mg/Kg) in combination with gemcitabine (25 mg/Kg or 50 mg/Kg) weekly during the period of day 14 to day 49. In the
gemcitabine treatment group, mice with tumor xenograft were treated with gemcitabine (100 mg/Kg) on days 16, 18 and 20. Animals in the control group were not treated.
In the xenograft tumor model, mice in the combination treatment group received administration of ITPP (2 mg/Kg) in combination with gemcitabine (25 mg/Kg or 50 mg/Kg) weekly during the period of day 14 to day 49. Mice in the gemcitabine treatment group received administration of gemcitabine (100 mg/Kg) on days 16, 18 and 20. Mice in the control group were not treated.
(§1) Median survival time of animals with ductal pancreatic adenocarcinoma treated with OXY111A and/or gemcitabine was followed and summarized in Table 1 below: […]

[2] = test system: Rat tumor in Nude Mouse (ductal pancreatic adenocarcinoma); assay: Median survival, rat pancreatic tumor in nude mouse; type: in vivo
From the text: as §1

[3] = test system: Syngeneic rat tumor in rat (ductal pancreatic adenocarcinoma); assay: Median survival, syngeneic rat pancreatic tumor in rat; type: in vivo
Protocol: (§2) In the ITPP treatment group, rats with pancreatic tumor were treated with ITPP (1.5 mg/Kg) weekly during the period of day 14 to day 49. In the gemcitabine treatment group, rats with pancreatic tumor were treated with gemcitabine (100 mg/Kg) on days 16, 18 and 20. Animals in the control group were not treated.
as §2, with “the combination” for “the ITPP”, “(1.5 mg/Kg) in combination with gemcitabine (25 mg/Kg or 50” for “(1.5”
In the rat pancreatic tumor model, rats in the combination treatment group received ITPP (1.5 mg/Kg) in combination with gemcitabine (25 mg/Kg or 50 mg/Kg) weekly during the period of day 14 to day 49. Rats in the gemcitabine treatment group received administration of gemcitabine (100 mg/Kg) alone on days 16, 18 and 20. Rats in the control group were not treated.
as §1

[4] = test system: Human MiaPaca in Nude Mouse; assay: Median survival, human MiaPaca tumor in nude mouse; type: in vivo
From the text: as §1

endothelial cells = assay: Endothelial cell sensitivity to chemotherapeutic drugs; type: cell-based, mouse; conditions: drug by itself, FIG. 4C
Protocol: Cell viability was evaluated by Alamar blue test (Biosource) as described by the manufacturer.

[5] = test system: B16F10LucGFP subcutaneous tumors; assay: Subcutaneous melanoma model (lung metastases, vessel normalization, drug efflux pump); type: in vivo, mouse
Protocol: (§3) B16F10LucGFP cells were grown as subcutaneous tumors, after injecting 100 μl of a plug constituted by 10^5 cells in 25% Matrigel™ (50% in OptiMEM). Matrigel was from BD Biosciences and OptiMEM from Invitrogen. Mice were euthanized and tumors and lungs excised 25 days after inoculation. […] Treatment was initiated 7, 9 or 11 days post melanoma cell inoculation.
Tumor tissues were embedded in Tissue-Tek (Sakura), tissue freezing medium and snap frozen in liquid nitrogen. Cryosections were fixed and stained using a rat monoclonal IgG2a antibodies against mouse CD31 (PECAM-I, platelet/endothelial cell adhesion molecule) from eBiosciences, rabbit IgG anti-SMA (smooth muscle actin) antibody (AbCAM), or mouse IgG2a anti-P-Glycoprotein (C219) (Calbiochem), diluted 1:200 in FCS 5% in PBS. Goat IgG-FITC-labeled anti-rat immunoglobulin, goat IgG-FITC-labelled anti-rabbit immunoglobulin or goat IgG-FITC-labelled anti-mouse immunoglobulin (diluted 1:200 in PBS) was used as secondary antibodies respectively. To detect cell nuclei, sections were incubated with bis-Benzimide H 33258 (Sigma-Aldrich) 1:1000 in PBS. Specimens were mounted in Vectashield (Vector) and fluorescent microscopy detection was performed on a Zeiss 200M inverted fluorescent microscope. Tumor necrosis was analysed after Hematoxylin eosine staining of tumor sections.
MRI assays were performed with a 9.4 T horizontal magnet for small animals (94/21 USR Bruker Biospec), equipped with a 950 mT/m gradient set. Mice were placed in a linear homogeneous coil (inner diameter: 35 mm). Animals were maintained under gaseous (50% N2O: 0.7 l/min—50% O2: 0.7l/min—Isoflurane 1.5%) anesthesia, temperature kept constant at 36° C. and breathing rate was monitored during the acquisitions using air balloon placed on the mouse chest to adjust the anesthetic output. Measurement of tumor vascularization was performed by MR angiography using the Fast Low Angle Shot (FLASH) sequence both in the axial and coronal planes. The FLASH pulse sequence was adapted to the study of the evolution of the angiogenesis of the tumor. This technique allows the 3D structure of the vascular tree of the tumor on the same animal to be followed overtime.
Structural changes of microcirculation in tumors were assessed by MRA (Magnetic Resonance Angiography) adaptation of Magnetic Resonance Imaging (MRI) to follow the 3D structure of the vascular tree of the tumor.

[6] = test system: B16F10LucGFP murine melanoma cells; assay: Experimental metastasis assay (intravenous B16F10LucGFP melanoma cells), lung markers; type: in vivo, mouse
Protocol: After intravenous injection of B16F10LucGFP murine melanoma cells (10^5 cells in 0.1 ml saline) in the tail vein, mice (eight-week-old female C57BL/6 from Janvier) were treated by 1.5 g/kg ITPP IP injected every 5 days (10 mice per treatment group). Treatment was initiated at day 5 after tumor cells inoculation. 19 or 27 days later, mice were euthanized and lungs collected separately. Macroscopic lung foci were counted and luciferase was determined by chemoluminescence assay (Promega) in order to quantify the amount of melanoma cells in tissues. All animal study procedures and the use of animals were approved by the Comite d'Ethique pour l'expérimentation animale, Campus CNRS d'Orléans, France.
Lungs were homogenized in lysis buffer (Active motif). After centrifugations, clear supernatant was collected. Total protein amount was determined by BCA protein assay kit (Thermo Scientific). HIF-1α, VEGF, Tie-2 and HO-1 in lung lysates were quantified using colorimetric sandwich ELISA according to the manufacturer's instructions. The HIF-1α, VEGF and Tie-2 ELISA kits were from R&D. The HO-1 ELISA kit was from Takara.
The Taqman polymerase chain reaction primer sequences for LOX were 5′-[…]-3′ (SEQ ID NO: 1) and 5′-[…]-3′ (SEQ ID NO: 2). For β-actin (internal control), the primer sequences were 5′-[…] ATCC-3′ (SEQ ID NO: 3) and 5′-[…]-3′ (SEQ ID NO: 4). The amplified cDNAs bands were quantified with ImageQuant software (Becton and Dickinson). LOX mRNA levels were normalized relatively to β-actin mRNA.
To validate ITPP as an anti-metastatic agent, the “artificial” model of lung metastasis was used by injecting intravenously melanoma cells in mice. The B16F10LucGFP cell line was used, which is the melanoma B16F10 line transduced by GFP and luciferase reporter genes allowing to track and quantify the melanoma cells by analysis of luciferase activity in tissues.

B16 tumor = assay: Immune cell infiltration into B16 tumor; type: in vivo
Protocol: OXY111A was injected intraperitoneally on days 7, 8, 14, 15, 21, 22, 29 and 30. Analysis of the B16 tumor was performed on day 31.
(a) to (c) untreated B16 tumor; (d) to (f) B16 tumor treated with ITPP. Green arrows indicate the infiltrating NK cells; red arrows indicate the vessel walls.
B16 tumor cells were labeled with B16F10 DAPI; NK cells were labeled by anti-CD49bFITCl; and vessel endothelial cells were labeled by antiCD31TRITC. (a) untreated B 16 tumor; (b) and (c) B 16 tumor treated with ITPP.

[7] = test system: subcutaneous melanoma tumor; assay: Oxylite pO2 measurement in subcutaneous melanoma tumor; type: in vivo, mouse
Protocol: as §3
The oxylite 2000E PO2 system (Oxford Optronics) measures pO2 by determining the O2-dependant fluorescence lifetime of ruthenium chloride which is immobilized at the tip of 230-μm diameter fiber-optic probe. The lifetime of the fluorescent pulse is inversely proportional to the oxygen tension in the tip. The mouse was anesthetized with intraperitoneal injection of xylazine/ketamin before the oxylite probe tip was installed inside the tumor and oxygen pressure recorded as described.
To confirm that ITPP-RBCs counteract hypoxia in vivo, a comparison of the values of the oxygen tension inside the melanoma tumors implanted subcutaneously above the left leg, in ITPP-treated and untreated mice was performed. Oxygen pressure (pO2) was computed by determining the O2-dependent fluorescence lifetime of ruthenium chloride on the tip of a fibre-optic probe. The lifetime of the fluorescent pulse is inversely proportional to the oxygen tension in the tip of the probe. While the tumors in non-treated animals, were strongly hypoxic with an oxygen pressure value below 2 mmHg (FIG. 1), in tumors of ITPP-treated mice pO2 reached the range of 40 mmHg (FIG. 1A). This pO2 increase occurred as soon as 30 minutes after intra-peritoneal injection of ITPP (FIG. 1B, C) and was maintained at a high level, up to 40 mmHg, as shown 24 hours after injection (FIG. 1A) for at least 48 hours.

Nc1ccn([C@@H]2O[C@H](CO)[C@@H](O)C2(F)F)c(=O)n1 [Gemcitabine, gemcitabine, reference compound]
Median survival time ([1]; Gemcitabine alone, 100 mg/kg): 141 days | Median survival time ([2]; Gemcitabine alone, 100 mg/kg): 89 days | Median survival time ([3]; Gemcitabine alone, 100 mg/kg): 58 days | Median survival time ([4]; Gemcitabine alone, 100 mg/kg): 140 days

CC(=O)O[C@H]1C(=O)[C@@]2(C)[C@H]([C@H](OC(=O)c3ccccc3)[C@]3(O)C[C@H](OC(=O)[C@H](O)[C@@H](NC(=O)c4ccccc4)c4ccccc4)C(C)=C1C3(C)C)[C@]1(OC(C)=O)CO[C@@H]1C[C@@H]2O [Paclitaxel, paclitaxel]
Growth of endothelial cells (endothelial cells): inhibited the growth of the endothelial cells

O=P1([O-])OC2C3OP(=O)([O-])OP(=O)([O-])OC3C3OP(=O)([O-])OP(=O)([O-])OC3C2OP(=O)([O-])O1.[Na+].[Na+].[Na+].[Na+].[Na+].[Na+] (stereo not drawn) [ITPP, hexasodium myo-inositol trispyrophosphate]
Median survival time ([1]; OXY111A alone, 2 mg/kg): 155 days | Tumor vasculature (MRA) ([5]; ITPP on day 9 and 14, repeated on days 18 and 19): less dense and remarkably normalized | Tumor size ([5]; ITPP on days 9, 14, 18, 19): remarkable reduction of the tumor size | P-glycoprotein drug efflux pump in tumor ([5]; implanted primary tumors, immunostaining): down-regulates | Lung metastases ([5]; initiation of ITPP on day 9 or 11): less effective | Lung metastases ([5]; initiation on day 9 or 11, chronic administrations): enhancement of pulmonary metastases | Lung metastases ([5]; short-term treatment (3 ITPP injections, 5 days intervals) started on day 7): reduced significantly the lung metastases | Median survival time ([2]; OXY111A alone, 2 mg/kg): 107 days | Median survival time ([3]; OXY111A alone, 1.5 mg/kg): 102 days | Median survival time ([4]; OXY111A alone, 2 mg/kg): 155 days | Tie-2 expression in lungs ([6]; ELISA on lung lysates): re-induced | VEGF level in lungs ([6]; ELISA on lung lysates): decreased to control levels | HIF-1α levels in lungs ([6]; ELISA on lung lysates, vs untreated melanoma bearing mice): decreased dramatically | HO-1 expression in lungs ([6]; ELISA, compared to non-treated mice): significantly reduced | Metastatic nodules in lung ([6]; ITPP treatment started from day 5, until day 27): very significantly reduced | Lysyl-oxidase (LOX) mRNA ([6]; semi-quantitative PCR): beneficial effect | Infiltration of CD49b NK cells into tumor (B16 tumor; in vivo): significantly enhanced | Presence of CD31 EC cells in tumor (B16 tumor; in vivo): significantly enhanced | Infiltration of CD68 (M2 type) macrophages into tumor (B16 tumor; intraperitoneal injections on days 7, 8, 14, 15, 21, 22, 29 and 30): significantly enhanced | pO2 level maintained in tumor ([7]; 24 hours after injection): up to 40 mmHg | Duration of high tumor pO2 ([7]; after injection): at least 48 hours | Time to pO2 increase in tumor ([7]; after intra-peritoneal injection of ITPP): 30 minutes | pO2 in muscle of non tumoral leg ([7]; parallel measurement in same animal): no change or any effect on pO2 was detected | Oxygen pressure (pO2) in tumor ([7]; tumors of ITPP-treated mice, FIG. 1A): ~40 mmHg

N.N.[Cl][Pt][Cl] [cisplatin, cis-dichlorodiamine platinum]
Growth of endothelial cells (endothelial cells): inhibited the growth of the endothelial cells

Source: patent publication US20140199261A1, “METHOD OF REDUCING MULTI-DRUG RESISTANCE USING INOSITOL TRIPYROPHOSPHATE” (Universite de Strasbourg, priority 2009, published 2014)
